In brackets after ≈: the same amount, converted by molar mass. Where two headings read alike, the source gives them in different places.
System: L1210 Leukämiezellen
Experiment: Colony formation of L1210 leukemia cells in soft agar
Type: cell-based, Maus
Conditions: for IC50: Mus musculus; for zytostatische Wirksamkeit: statement in words, compared with Adriamycin
Description: Die zytostatische Wirksamkeit der erfindungsgemäßen Verbindungen wurde anhand von L1210 Leukämiezellen der Maus getestet. Hierzu wurde die Koloniebildung von L1210 Leukämiezellen in Agarplatten herangezogen. Diese Methode dient zum Nachweis des Einflusses der Testsubstanzen auf das Wachstumsverhalten der Zellen nach Inkubation von 1 Stunde oder über mehrere Generationen. Bei einer Zelzykluszeit von 10-12 Stunden werden dabei in der Testzeit von 7 Tagen etwa 14 aufeinanderfolgende Generationen beobachtet. Die erfindungsgemäßen zytostatisch wirksamen Substanzen bewirken in diesem Test eine Reduktion der zu beobachtenden Koloniezahl gegenüber einer unbehandelten Kontrollprobe.
Einzelheiten des Testverfahrens ergeben sich aus der nachfolgenden Verfahrensweise zur Ermittlung der Koloniebildung.
Verfahrensweise zur Ermittlung der Koloniebildung von L1210 Leukämiezellen in Soft-Agar
500 Leukämiezellen pro Platte wurden mit unterschiedlichen Konzentrationen der Testsubstanz 1 Stunde bei 37°C inkubiert. Anschließend wurden die Zellen zweimal mit McCoy5A-Medium gewaschen und schließlich in Petrischalen nach Zugabe von 0,3 % Agar ausgegossen. Kontrollen wurden lediglich mit frischem Medium inkubiert. Anstelle der einstündigen Inkubation wurden in manchen Fällen unterschiedliche Konzentrationen und Testsubstanzen der oberen Agarschicht zugemischt, um so eine kontinuierliche Exposition der Zellen über die gesamte Inkubationszeit zu erreichen. Nach Erstarren des Agars wurden die Platten im Brutschrank 7 Tage bei 37°C inkubiert (5 Vol.-% CO₂, 94 % relative Luftfeuchtigkeit). Anschließend wurde die Zahl der entstandenen Kolonien mit einem Durchmesser von mehr als 60 µm gezählt. Die Ergebnisse wurden angegeben als Koloniezahl in behandelten Agarplatten in Prozent der unbehandelten Kontrolle. Aus der so erhaltenen Dosiswirkungskruve wurde die IC₅₀ als Maß für die Wirksamkeit der Substanz ermittelt. Die Ergebnisse für die hier beschriebenen Verbindungen im Vergleich zu Adriamycin sind in der nachfolgenden Tabelle 1 zusammengefaßt.

[1] = L1210, 168 h, read-out: Dauerinkubation IC50
[2] = L1210, read-out: 1h-Inkubation IC50
[3] = L1210, 168 h, continuous exposure: substance mixed into upper agar layer for the whole 7-day incubation at 37°C, colonies > 60 µm counted, percent of untreated control, read-out: Dauerinkubation IC50
[4] = L1210, 1 h incubation with substance at 37°C, cells washed twice, then plated in 0,3 % agar for 7 days, colonies > 60 µm counted, read-out: 1h-Inkubation IC50
[5] = 1 h incubation with substance at 37°C, cells washed twice, then plated in 0,3 % agar for 7 days, colonies > 60 µm counted
[6] = continuous exposure: substance mixed into upper agar layer for the whole 7-day incubation at 37°C, colonies > 60 µm counted, percent of untreated control

Row | Compound | IC50 [3] [µg/mL] | IC50 [4] [µg/mL] | further results
1 | CC[C@@]1(O)C[C@H](O[C@H]2C[C@H](N)[C@H](O)[C@H](C)O2)c2c(O)c3c(c(O)c2[C@H]1O[C@H]1C=C[C@@H](O)[C@H](C)O1)C(=O)c1cccc(O)c1C3=O [Beispiel 42, 10-0-(2,3,6-Tridesoxy-α-L-erythro-hex-2-enopyranosyl)-7-0-α-L-daunosaminyl-β-rhodomycinon] |  |  | IC50 [1]: 0.16 µg/mL (≈ 0.255 µM); IC50 [2]: > 1 µg/mL
2 | CC[C@@]1(O)C[C@H](O[C@H]2C[C@H](N)[C@@H](O)[C@H](C)O2)c2c(O)c3c(c(O)c2[C@H]1O[C@H]1C[C@H](N)[C@@H](O)[C@H](C)O1)C(=O)c1cccc(O)c1C3=O [Beispiel 33, 7,10-Di-O-α-L-acosaminyl-β-rhodomycinon] | > 1 | > 1 | 
3 | CC[C@@]1(O)C[C@H](O[C@H]2C[C@H](N)[C@@H](O)[C@H](C)O2)c2c(O)c3c(c(O)c2[C@H]1O)C(=O)c1cccc(O)c1C3=O [Beispiel 15, 7-0-α-L-Acosaminyl-β-rhodomycinon] | 0.004 (≈ 0.00776 µM) | 0.02 (≈ 0.0388 µM) | zytostatische Wirksamkeit: vergleichbar
4 | CC[C@@]1(O)C[C@H](O[C@H]2C[C@H](N)[C@@H](OCc3ccccc3)[C@H](C)O2)c2c(O)c3c(c(O)c2[C@H]1O)C(=O)c1cccc(O)c1C3=O [Beispiel 48, 7-O-(4-O-Benzyl-α-L-acosaminyl)-β-rhodomycinon] |  | 0.095 (≈ 0.157 µM) | 
5 | CC[C@@]1(O)C[C@H](O[C@H]2C[C@H](NC(=O)C(F)(F)F)[C@H](OC(=O)c3ccc([N+](=O)[O-])cc3)[C@H](C)O2)c2c(O)c3c(c(O)c2[C@H]1O[C@@H]1C[C@H](NC(=O)C(F)(F)F)[C@H](OC(=O)c2ccc([N+](=O)[O-])cc2)[C@H](C)O1)C(=O)c1cccc(O)c1C3=O [Beispiel 27, 7,10-Di-O-(4-O-paranitrobenzoyl-3-N-trifluoracetyl-α-L-daunosaminyl)-β-rhodomycinon] |  |  | 1h-Inkubation IC50 [5]: >1 µg/mL; Dauerinkubation IC50 [6]: >1 µg/mL
6 | CC[C@@]1(O)C[C@H](O[C@H]2C[C@H](NC(=O)C(F)(F)F)[C@@H](OCc3ccccc3)[C@H](C)O2)c2c(O)c3c(c(O)c2[C@H]1O)C(=O)c1cccc(O)c1C3=O [Beispiel 49, 7-O-(4-O-Benzyl-3-N-trifluoracetyl-α-L-acosaminyl)-β-rhodomycinon] |  |  | IC50 [2]: > 1 µg/mL
7 | CC[C@@]1(O)C[C@H](O[C@H]2C[C@H](NC(=O)C(F)(F)F)[C@H](OC(=O)c3ccc([N+](=O)[O-])cc3)[C@H](C)O2)c2c(O)c3c(c(O)c2[C@H]1O)C(=O)c1cccc(O)c1C3=O [Beispiel 19, 7-O-(4-O-Paranitrobenzoyl-3-N-trifluoracetyl-α-L-daunosaminyl)-β-rhodomycinon] | 0.11 (≈ 0.145 µM) | > 1 | 
8 | CC[C@@]1(O)C[C@H](O)c2c(O)c3c(c(O)c2[C@H]1O[C@H]1C[C@H](N(C)C)[C@@H](O)[C@H](C)O1)C(=O)c1cccc(O)c1C3=O [Beispiel 12, 10-0-(3-N,N-Dimethyl-α-L-acosaminyl)-β-rhodomycinon] | 0.5 (≈ 0.92 µM) | > 1 | 
9 | CC[C@@]1(O)C[C@H](O[C@H]2C[C@H](N(C)C)[C@H](OC(=O)c3ccccc3)[C@H](C)O2)c2c(O)c3c(c(O)c2[C@H]1O[C@H]1C[C@H](NC(=O)C(F)(F)F)[C@@H](OC(=O)c2ccc([N+](=O)[O-])cc2)[C@H](C)O1)C(=O)c1cccc(O)c1C3=O [Beispiel 38, 7-0-(4-0-Benzoyl-α-L-rhodosaminyl)-10-0-(4-0-paranitrobenzoyl-3-N-trifluoracetyl-α-L-acosaminyl)-β-rhodomycinon] | > 1 | > 1 | 
10 | CC[C@@]1(O)C[C@H](O)c2c(O)c3c(c(O)c2[C@H]1O[C@H]1C[C@H](N)[C@H](O)[C@H](C)O1)C(=O)c1cccc(O)c1C3=O [Beispiel 11, 10-0-α-L-Daunosaminyl-β-rhodomycinon] | > 1 | > 1 | 
11 | CC[C@@]1(O)C[C@H](O[C@H]2C[C@H](N(C)C)[C@@H](O)[C@H](C)O2)c2c(O)c3c(c(O)c2[C@H]1O)C(=O)c1cccc(O)c1C3=O [Beispiel 16, 7-0-(3-N,N-Dimethyl-α-L-acosaminyl)-β-rhodomycinon] |  |  | IC50 [1]: 0.006 µg/mL (≈ 0.011 µM); IC50 [2]: 0.02 µg/mL (≈ 0.0368 µM); zytostatische Wirksamkeit: vergleichbar
12 | CC[C@@]1(O)C[C@H](O[C@@H]2O[C@@H](C)[C@H](OC(C)=O)[C@@H](OC(C)=O)[C@H]2I)c2c(O)c3c(c(O)c2[C@H]1OC1CCCCO1)C(=O)c1cccc(O)c1C3=O (stereo partly drawn) [Beispiel 25, 7-O-(3,4-Di-O-acetyl-2,6-didesoxy-2-iodo-α-L-mannopyranosyl)-10-O-tetrahydropyranyl-β-rhodomycinon] |  |  | 1h-Inkubation IC50 [5]: >1 µg/mL; Dauerinkubation IC50 [6]: >1 µg/mL
